One experiment deals with D(2) dopamine receptor (Rattus norvegicus, UniProt P61169). Briefly: Compound was tested for binding affinity against Dopamine receptor D2 using 10 nM [3H]N-methyl-spiperone as the radioligand.
The target of the next experiment is D(1A) dopamine receptor (Rattus norvegicus, UniProt P18901). Briefly: Compound was tested for binding affinity against Dopamine receptor D1 using 1 nM [3H]SCH-23390 as the radioligand.
For a further experiment, the target named is Mu-type opioid receptor (Bos taurus, UniProt P79350). The experiment is described as follows: Compound was tested for binding activity against mu opioid receptor in bovine striatal membranes using 0.25 nM [3H]DAMGO as the radioligand. The class given is cell membranes, Striatum, Membrane.
Mu-type opioid receptor, sequence (P79350 whole entry): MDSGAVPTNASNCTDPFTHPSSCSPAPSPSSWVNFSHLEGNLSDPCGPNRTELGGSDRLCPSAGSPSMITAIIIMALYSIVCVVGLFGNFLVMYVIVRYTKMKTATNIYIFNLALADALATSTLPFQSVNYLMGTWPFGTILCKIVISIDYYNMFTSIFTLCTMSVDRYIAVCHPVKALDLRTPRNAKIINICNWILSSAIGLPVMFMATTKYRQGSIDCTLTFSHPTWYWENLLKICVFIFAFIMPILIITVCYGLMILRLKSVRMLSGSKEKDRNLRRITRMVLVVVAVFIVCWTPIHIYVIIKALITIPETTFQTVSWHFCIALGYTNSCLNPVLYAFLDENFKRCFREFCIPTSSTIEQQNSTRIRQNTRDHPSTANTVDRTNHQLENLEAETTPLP
The test system of a further experiment is Mus musculus. The experiment is described as follows: Compound was tested for its activity using mouse writhing assay after icv administration. The class given is functional. On the technique in general: Writhing tests count abdominal constrictions after an irritant is injected.

Structures are written as SMILES.

D(1A) dopamine receptor, sequence (P18901 whole entry): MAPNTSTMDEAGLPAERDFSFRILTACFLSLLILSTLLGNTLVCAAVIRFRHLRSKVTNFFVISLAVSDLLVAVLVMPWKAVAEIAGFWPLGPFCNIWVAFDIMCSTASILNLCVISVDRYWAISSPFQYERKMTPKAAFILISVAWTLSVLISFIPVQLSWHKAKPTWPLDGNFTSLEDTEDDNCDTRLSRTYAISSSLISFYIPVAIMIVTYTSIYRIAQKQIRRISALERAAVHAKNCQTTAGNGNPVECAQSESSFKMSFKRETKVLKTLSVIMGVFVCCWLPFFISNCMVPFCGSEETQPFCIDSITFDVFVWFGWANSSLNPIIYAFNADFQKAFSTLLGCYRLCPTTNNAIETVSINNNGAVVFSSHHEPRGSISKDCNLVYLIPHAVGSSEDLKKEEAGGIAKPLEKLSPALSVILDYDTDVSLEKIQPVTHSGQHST
D(2) dopamine receptor, sequence (P61169 whole entry): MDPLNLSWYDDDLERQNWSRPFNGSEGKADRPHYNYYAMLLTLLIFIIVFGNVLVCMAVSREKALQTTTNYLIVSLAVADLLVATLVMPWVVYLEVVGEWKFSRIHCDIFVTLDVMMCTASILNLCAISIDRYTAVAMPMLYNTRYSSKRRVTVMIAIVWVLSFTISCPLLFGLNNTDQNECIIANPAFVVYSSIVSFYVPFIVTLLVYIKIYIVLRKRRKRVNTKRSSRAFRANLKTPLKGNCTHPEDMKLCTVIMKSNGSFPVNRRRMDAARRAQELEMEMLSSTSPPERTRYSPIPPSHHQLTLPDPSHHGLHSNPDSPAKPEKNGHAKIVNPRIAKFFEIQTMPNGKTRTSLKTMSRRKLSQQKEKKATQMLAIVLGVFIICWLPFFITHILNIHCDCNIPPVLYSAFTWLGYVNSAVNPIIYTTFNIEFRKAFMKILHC

Consider `CN1CCc2cc(Cl)c(O)cc2C(c2cccc(N=C=S)c2)C1` (centres undefined), for which the IC50 (usually the point on the concentration scale where inhibition reaches its midpoint) on D(2) dopamine receptor was 978 nM; on D(1A) dopamine receptor it was 2.13 nM.
`O=C(CSSCC(=O)N[C@@]12CCC(=O)[C@@H]3Oc4c(O)ccc5c4[C@@]31CCN(CC1CCC1)[C@@H]2C5)N[C@@]12CCC(=O)[C@@H]3Oc4c(O)ccc5c4[C@@]31CCN(CC1CCC1)[C@@H]2C5`: the IC50 at Mu-type opioid receptor is 1.95 nM. For the same molecule, in the experiment on Mus musculus, the D50 is reported as 0.08 nM.

Values taken from ChEMBL document CHEMBL1128914, “Suppression of morphine and cocaine self-administration in rats by a mixed mu antagonist-kappa agonist (N-CBM-TAMO) and a long-acting selective D1 antagonist (AS-300)” (Bioorg Med Chem Lett, 1996).
